This note sets out measurements from patent publication US6083973A, “Methods for inhibiting mucin secretion using RAR α selective antagonists” (Syntex (U.S.A.) Inc., priority 1999, dated 2000).

pIC50: −log10 of the molar value.

In assay [1] the target is T1, RARβ (Homo sapiens, UniProt P10826).
T1 sequence (P10826 1-455): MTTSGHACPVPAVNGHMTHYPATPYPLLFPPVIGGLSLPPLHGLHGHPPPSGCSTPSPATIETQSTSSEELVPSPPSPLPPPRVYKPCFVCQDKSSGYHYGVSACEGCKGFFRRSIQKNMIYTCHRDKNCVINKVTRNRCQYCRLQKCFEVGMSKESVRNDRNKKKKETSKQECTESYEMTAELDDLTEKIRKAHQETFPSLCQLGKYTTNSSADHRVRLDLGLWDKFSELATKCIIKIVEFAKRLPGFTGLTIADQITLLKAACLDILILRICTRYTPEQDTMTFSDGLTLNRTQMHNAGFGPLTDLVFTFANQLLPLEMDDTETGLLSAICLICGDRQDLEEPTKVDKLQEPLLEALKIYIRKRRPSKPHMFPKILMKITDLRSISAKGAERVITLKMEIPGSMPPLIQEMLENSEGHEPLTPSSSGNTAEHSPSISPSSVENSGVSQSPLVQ
Nature of the assay: RAR binding, competition with labelled ATRA, β. As for the experimental part: (§1) The term "IC50 " of a retinoid for a retinoic acid receptor refers to the concentration of the retinoid at which binding by ATRA to that particular receptor is inhibited by 50%. Binding is measured by competition of the retinoid with labelled ATRA.
(§2) The RARα antagonist selectivity of a compound can be determined by routine ligand binding assays known to one of skill in the art such as described in C. Apfel, et al. Proc. Nat. Sci. Acad. (USA), 89:7129-7133 (1992); M. Teng, et al, J. Med. Chem., 40:2445-2451 (1997); and PCT Publication WO 96/30009.

Assay [2] concerns the target T2, RARα (Homo sapiens, UniProt P10276).
T2 sequence (P10276 1-462): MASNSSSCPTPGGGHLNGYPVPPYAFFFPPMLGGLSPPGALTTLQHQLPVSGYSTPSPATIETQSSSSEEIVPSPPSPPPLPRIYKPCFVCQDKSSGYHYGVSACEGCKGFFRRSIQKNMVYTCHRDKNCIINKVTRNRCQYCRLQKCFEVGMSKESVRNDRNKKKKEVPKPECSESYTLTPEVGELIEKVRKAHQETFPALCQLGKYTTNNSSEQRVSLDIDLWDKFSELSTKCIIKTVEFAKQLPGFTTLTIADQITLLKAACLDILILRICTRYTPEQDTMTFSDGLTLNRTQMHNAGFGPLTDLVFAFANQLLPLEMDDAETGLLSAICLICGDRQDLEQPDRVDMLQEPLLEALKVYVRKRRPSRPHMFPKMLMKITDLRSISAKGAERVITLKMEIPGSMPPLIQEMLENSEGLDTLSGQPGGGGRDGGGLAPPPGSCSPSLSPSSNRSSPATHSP
Nature of the assay: RAR binding, competition with labelled ATRA, α. How it is done: as §1, §2

For assay [3], the target named is T3, RARγ (Homo sapiens, UniProt P13631).
T3 sequence (P13631 1-454): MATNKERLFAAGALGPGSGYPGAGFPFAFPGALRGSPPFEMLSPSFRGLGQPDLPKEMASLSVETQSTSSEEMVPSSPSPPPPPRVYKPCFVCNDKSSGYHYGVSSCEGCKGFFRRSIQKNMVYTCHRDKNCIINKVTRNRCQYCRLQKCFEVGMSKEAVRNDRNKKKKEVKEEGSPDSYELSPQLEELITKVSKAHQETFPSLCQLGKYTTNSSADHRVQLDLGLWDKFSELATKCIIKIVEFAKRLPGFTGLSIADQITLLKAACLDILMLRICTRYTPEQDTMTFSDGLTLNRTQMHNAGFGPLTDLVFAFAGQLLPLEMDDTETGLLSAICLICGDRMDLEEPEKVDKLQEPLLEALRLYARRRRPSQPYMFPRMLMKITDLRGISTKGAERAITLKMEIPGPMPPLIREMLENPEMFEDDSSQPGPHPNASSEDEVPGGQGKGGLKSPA
Nature of the assay: RAR binding, competition with labelled ATRA, γ. As for the experimental part: as §1, §2

Assay [4] addresses T3, RARγ. Nature of the assay: Transactivation of RARγ relative to ATRA. The class given is biochemical. To be noted: both compounds at 10000 nM, read-out: Transactivation EC50 % MAX, RARγ. How it is done: (§3) As used herein, the term "EC50 " of a retinoid for a retinoic acid receptor means the transactivation by the retinoid of the particular retinoic acid receptor under consideration relative to the transactivation of that same receptor by ATRA under identical conditions with both retinoids at the same concentration (1000 nM or 10000 nM depending on the highest concentration tested). Values are expressed as a percentage.
(§4) As used herein, the term "transactivation" refers to the ability of a retinoid to activate the transcription of a gene where the gene transcription is initiated by the binding of a ligand to the particular retinoic acid receptor being tested, i.e., RARα, RARβ, or RARγ. Determining the ability of a compound to transactivate a retinoic acid receptor may be performed by methods known to those of skill in the art. Examples of such methods are found in Bernard, et al. Biochem. Biophys. Res. Commun., 186:977-983 (1992) and C. Apfel, et al. Proc. Nat. Sci. Acad. (USA), 89:7129-7133 (1992).
(§5) EC50 's were determined relative to ATRA, with both compounds at 10000 nM. Values are expressed as a percentage of transactivation relative to ATRA.

The target of assay [5] is T1, RARβ. In words: Transactivation of RARβ relative to ATRA. The conditions noted are these: both compounds at 10000 nM, read-out: Transactivation EC50 % MAX, RARβ. The class given is biochemical. How it is done: as §3, §4, §5
The target of assay [6] is T2, RARα. In words: Transactivation of RARα relative to ATRA. It counts as biochemical. To be noted: both compounds at 10000 nM, read-out: Transactivation EC50 % MAX, RARα. How it is done: as §3, §4, §5

For `CCCCCCCCc1cc2c(cc1/C(C)=C/C=C/C(C)=C/C(=O)O)C(C)(C)CCCS2(=O)=O`, the pIC50 on RARβ [1] was 5.31; on RARα [2], 7.33; on RARγ [3], 6.00. The Emax at 10 µM at RARγ [4] stood at 33%; at RARα [6], 11%. At RARβ [5], the % transactivation relative to ATRA at 10 µM was determined as 35%.

Consider `CCCCCCCCc1cc2c(cc1/C(C)=C/c1ccc(C(=O)O)cc1)C(C)(C)CCS2(=O)=O`, for which the pIC50 at RARβ [1] is 5.72; on RARα [2], 7.15; on RARγ [3], 5.64. In addition, the Emax at 10 µM on RARγ [4] came to 32%; on RARα [6], 16%. Also, the % transactivation relative to ATRA at 10 µM on RARβ [5] was found to be 15%.

Turning to `CCCCCCCOc1cc2c(cc1/C(C)=C/C=C/C(C)=C/C(=O)O)C(C)(C)CCS2`, the pIC50 on RARβ [1] is greater than 5.00; on RARα [2] it was 6.70; on RARγ [3], greater than 5.00. Moreover, the Emax at 10 µM came to 36% at RARγ [4] and 27% on RARα [6]. In addition, the % transactivation relative to ATRA at 10 µM on RARβ [5] is 17%.

`CCCCCCCOc1cc2c(cc1/C(C)=C/C=C/C(C)=C/C(=O)O)C(C)(C)CCCS2(=O)=O`: the pIC50 is 5.19 at RARβ [1], 6.74 on RARα [2] and 5.66 on RARγ [3]. Besides, the values for the Emax at 10 µM on RARγ [4] and on RARα [6] were 30% and 12%, respectively. On RARβ [5], the % transactivation relative to ATRA at 10 µM came out at 20%.

Take `CCCCCCCOc1cc2c(cc1/C(C)=C/c1ccc(C(=O)O)cc1)C(C)(C)CCCS2(=O)=O`: the figures for the pIC50 at RARβ [1], on RARα [2] and at RARγ [3] were 5.52, 6.72 and 5.60, respectively. The Emax at 10 µM on RARγ [4] stood at 18%; at RARα [6], 14%. Also, on RARβ [5], the % transactivation relative to ATRA at 10 µM amounted to 7%.

Take `CCCCCCCOc1cc2c(cc1-c1ccc3cc(C(=O)O)ccc3c1)C(C)(C)CCS2(=O)=O`: the pIC50 at RARβ [1] was 5.55; on RARα [2], 6.44; on RARγ [3], 5.85. The Emax at 10 µM at RARγ [4] came to 14%; at RARα [6], 8%. Moreover, the % transactivation relative to ATRA at 10 µM at RARβ [5] worked out at 17%.

With `CCCCCCCOc1cc2c(cc1/C(C)=C/c1ccc(C(=O)O)cc1)C(C)CCCS2(=O)=O` (stereo not shown), the figures for the pIC50 on RARβ [1], at RARα [2] and at RARγ [3] were 5.29, 6.28 and 5.52, respectively. At RARβ [5], the % transactivation relative to ATRA at 10 µM came out at 7%. For the same compound, on RARα [6], the Emax at 10 µM was determined as 5%.

Turning to `CCCCCCCOc1cc2c(cc1C#Cc1ccc(C(=O)O)cc1)C(C)(C)CCS2(=O)=O`, the figures for the pIC50 at RARβ [1], at RARα [2] and at RARγ [3] were 5.46, 6.62 and 5.54, respectively. Moreover, the Emax at 10 µM is 20% on RARγ [4] and 18% at RARα [6]. Besides, the % transactivation relative to ATRA at 10 µM at RARβ [5] is 6%.

For the compound `CCCCCCCOc1cc2c(cc1/C(C)=C/C=C/C(C)=C/C(=O)O)C(C)(C)CC[S+]2[O-]` (stereo not shown), the pIC50 at RARβ [1] is less than 5.00; at RARα [2], 6.36; on RARγ [3], 5.43. In addition, the Emax at 10 µM at RARγ [4] amounted to 11%; at RARα [6] it was 13%. Also, at RARβ [5], the % transactivation relative to ATRA at 10 µM stood at 10%.

For `CCCCCCCCc1cc2c(cc1/C(C)=C/c1ccc(C(=O)O)cc1)C(C)(C)CCCS2(=O)=O`, the pIC50 is 5.48 at RARβ [1], 6.70 on RARα [2] and 5.74 on RARγ [3]. For the same compound, the Emax at 10 µM at RARγ [4] was found to be 36%; on RARα [6], 18%. The % transactivation relative to ATRA at 10 µM at RARβ [5] worked out at 13%.

Consider `CCCCCCCOc1cc2c(cc1\C(C)=C/C=C/C(C)=C/C(=O)O)C(C)(C)CCS2(=O)=O`, for which the values for the pIC50 at RARβ [1], at RARα [2] and at RARγ [3] were less than 5.00, 6.35 and less than 5.00, respectively. Further, the Emax at 10 µM on RARγ [4] is 20%; at RARα [6], 24%. Besides, the % transactivation relative to ATRA at 10 µM on RARβ [5] was determined as 31%.

Consider `CCCCCCOc1cc2c(cc1/C(C)=C/C=C/C(C)=C/C(=O)O)C(C)(C)CCCS2(=O)=O`, for which the pIC50 at RARβ [1] is 5.60; on RARα [2] it was 6.60; on RARγ [3], 5.89. Also, the Emax at 10 µM at RARγ [4] is 46%; at RARα [6] it was 20%. In addition, at RARβ [5], the % transactivation relative to ATRA at 10 µM turned out to be 32%.

Regarding `CCCCCCCCOc1cc2c(cc1/C(C)=C/c1ccc(C(=O)O)cc1)C(C)(C)CCCS2(=O)=O`, the figures for the pIC50 at RARβ [1], on RARα [2] and at RARγ [3] were 5.16, 6.41 and 5.59, respectively. Moreover, the Emax at 10 µM on RARγ [4] amounted to 25%; at RARα [6] it was 8%. Besides, at RARβ [5], the % transactivation relative to ATRA at 10 µM is 21%.

With `CCCCCCOc1cc2c(cc1/C(C)=C/c1ccc(C(=O)O)cc1)C(C)(C)CCCS2(=O)=O`, the results for the pIC50 at RARβ [1], on RARα [2] and at RARγ [3] were 5.42, 6.24 and 5.59, respectively. The Emax at 10 µM was 54% on RARγ [4] and 14% at RARα [6]. The % transactivation relative to ATRA at 10 µM on RARβ [5] was 37%.

In the case of `CCCCCCCOc1cc2c(cc1/C(C)=C/c1ccc(C(=O)O)cc1)C(C)(C)CS2(=O)=O`, the pIC50 at RARβ [1] is 5.16; at RARα [2], 6.80; on RARγ [3], 5.47. The Emax at 10 µM was found to be 24% on RARγ [4] and 11% at RARα [6]. Moreover, at RARβ [5], the % transactivation relative to ATRA at 10 µM worked out at 22%.

Take `CCCCCCCOc1cc2c(cc1/C(C)=C/c1ccc(C(=O)O)cc1)C(C)(C)CCS2(=O)=O` [drawing 3]: the values for the pIC50 on RARα [2] and on RARγ [3] were 7.11 and 5.38, respectively. Besides, the figures for the Emax at 10 µM on RARγ [4] and at RARα [6] were 9% and 16%, respectively. For the same compound, at RARβ [5], the % transactivation relative to ATRA at 10 µM worked out at 3%.

For `CCCCCCCOc1cc2c(cc1/C(C)=C/C=C/C(C)=C/C(=O)O)C(C)(C)CCS2(=O)=O` [drawing 4], the figures for the pIC50 at RARβ [1], at RARα [2] and on RARγ [3] were 5.29, 7.57 and 5.62, respectively. In addition, the Emax at 10 µM was 16% on RARγ [4] and 9% at RARα [6]. For the same compound, the % transactivation relative to ATRA at 10 µM on RARβ [5] stood at 14%.
